Measurements as given in patent publication US7473700B2, “1,2,4-triazole derivatives, processes for the preparation thereof, and pharmaceutical compositions containing the same” (CJ Corporation, priority 2002, dated 2009).

Columns and labels:
COX-1 = target: T1, COX-1 (Homo sapiens, UniProt P23219); test: Assay for the COX-1 inhibitory activity using U-937 (PGE2 inhibition); type: cell-based; settings: 1 μM test compound; U-937 human lymphoma cells; PGE2 after arachidonic acid; read-out: Cyclooxygenase (COX) Inhibition (%) COX-1 (1 μM)
T1 construct: host or cells: U-937 human lymphoma cells
T1 sequence (P23219 24-599): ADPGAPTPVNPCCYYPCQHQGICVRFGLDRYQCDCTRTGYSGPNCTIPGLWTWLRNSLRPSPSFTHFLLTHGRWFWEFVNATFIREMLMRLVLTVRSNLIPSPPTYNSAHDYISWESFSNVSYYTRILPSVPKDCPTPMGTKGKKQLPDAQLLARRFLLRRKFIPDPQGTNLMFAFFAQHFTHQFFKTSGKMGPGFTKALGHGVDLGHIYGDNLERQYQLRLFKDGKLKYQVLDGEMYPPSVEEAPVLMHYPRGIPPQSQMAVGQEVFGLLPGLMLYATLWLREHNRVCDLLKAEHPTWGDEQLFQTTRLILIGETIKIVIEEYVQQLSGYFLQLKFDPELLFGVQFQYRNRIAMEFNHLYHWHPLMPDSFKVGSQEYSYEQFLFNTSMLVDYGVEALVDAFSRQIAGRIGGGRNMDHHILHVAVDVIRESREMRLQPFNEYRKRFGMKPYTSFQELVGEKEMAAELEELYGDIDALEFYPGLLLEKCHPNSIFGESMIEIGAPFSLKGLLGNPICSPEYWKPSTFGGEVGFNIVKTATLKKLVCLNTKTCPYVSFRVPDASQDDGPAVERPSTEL
Method: The collected cells were diluted with HBSS (×1, Hank's balanced salt solution) to a concentration of 1×10^6 cells/ml. 1 ml of the dilute cell solution was placed into each well of 12-well plates. 5 μl of 1 μM solution of a test compound in DMSO and 5 μl of DMSO as a control were added to the wells. The wells were incubated in CO2 incubator at 37° C. for 15 minutes. Separately, 10 mM stock solution of arachidonic acid in ethanol was diluted ten times in ethanol to prepare 1 mM solution of arachidonic acid. Arachidonic acid acts as a substrate. 10 μl of the 1 mM solution of arachidonic acid was added to each well and incubated at CO2 incubator at 37° C. for 30 minutes. The cell solution of each well was placed in a centrifuge test tube and centrifuged at 10,000 rpm at 4° C. for 5 minutes. The concentration of PGE2 in the collected cells and the supernatant was quantified by means of a monoclonal kit (Cayman Chemicals). The percentages of PGE2 inhibition in a group of the test compound-treated cells in relation to a group of the DMSO-treated cells were calculated. Based on the calculated values, the COX-1 inhibitory activities were evaluated.
(§1) The percentages of the COX inhibition were calculated according to the following equation: % Inhibition=(concentration of PGE2 in test compound-untreated sample−concentration of PGE2 in test compound-treated sample)/(concentration of PGE2 in test compound-untreated sample)×100

COX-2 = target: T2, COX-2 (Mus musculus, UniProt Q05769); test: Assay for the COX-2 inhibitory activity using RAW 264.7 cell line (PGE2 inhibition); type: cell-based; settings: RAW264.7, 10 nM test compound, RAW 264.7 cells, interferon γ and LPS, 18 hours, read-out: Cyclooxygenase (COX) Inhibition (%) COX-2 (10 nM)
T2 construct: host or cells: RAW 264.7 cells, aspirin-pretreated, then induced with interferon gamma and LPS
T2 sequence (Q05769 18-604): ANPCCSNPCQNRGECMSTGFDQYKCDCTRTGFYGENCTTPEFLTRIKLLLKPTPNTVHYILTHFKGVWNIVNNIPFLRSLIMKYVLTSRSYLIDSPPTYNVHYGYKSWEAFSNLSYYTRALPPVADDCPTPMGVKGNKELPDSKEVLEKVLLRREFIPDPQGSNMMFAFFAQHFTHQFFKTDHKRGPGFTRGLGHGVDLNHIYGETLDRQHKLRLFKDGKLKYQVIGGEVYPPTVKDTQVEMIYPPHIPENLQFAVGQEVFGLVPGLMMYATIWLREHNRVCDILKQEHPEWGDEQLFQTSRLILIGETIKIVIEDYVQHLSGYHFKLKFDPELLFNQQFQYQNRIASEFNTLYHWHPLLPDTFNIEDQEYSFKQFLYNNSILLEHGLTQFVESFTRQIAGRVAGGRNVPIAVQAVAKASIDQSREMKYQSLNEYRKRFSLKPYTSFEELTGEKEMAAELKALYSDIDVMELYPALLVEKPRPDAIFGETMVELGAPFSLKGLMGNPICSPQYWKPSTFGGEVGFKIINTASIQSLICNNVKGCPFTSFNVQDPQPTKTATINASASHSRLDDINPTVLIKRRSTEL
Method: Each well was treated with 250 μM of aspirin and incubated at 37° C. for 2 hours. After the culture media were replaced with new culture media, the new culture media were treated with a test compound (10 nM) and incubated for 30 minutes. Then, each well was treated with interferon γ (100 units/ml) and lipopolysaccharide (LPS, 100 ng/ml) and incubated for 18 hours. The culture media were transferred to other test tubes. The concentration of PGE2 was quantified by means of the EIA kit (Cayman Chemicals).
as §1

| inhibition at 1 µM (COX-1) [%] | inhibition at 0.01 µM (COX-2) [%] | SMILES |
| --- | --- | --- |
| 34.2 | 12.2 | COc1ccc(-c2nc(OC(C)C)nn2-c2ccc(S(N)(=O)=O)cc2)cc1 [Example 46, 4-[3-isopropoxy-5-(4-methoxyphenyl)-1,2,4-triazole-1-yl]-benzenesulfonamide] |
| 25.4 | 10.6 | CC(C)Oc1nc(-c2ccccc2)n(-c2ccc(S(N)(=O)=O)cc2)n1 [Example 47, 4-(3-isopropoxy-5-phenyl-1,2,4-triazole-1-yl)-benzenesulfonamide] |
| 26.4 | 9.8 | CC(C)Oc1nc(-c2ccc(F)cc2)n(-c2ccc(S(N)(=O)=O)cc2)n1 [Example 48, 4-[3-isopropoxy-5-(4-fluorophenyl)-1,2,4-triazole-1-yl]-benzenesulfonamide] |
| 34.3 | 33.1 | C=CCOc1nc(-c2ccc(OC)cc2)n(-c2ccc(S(N)(=O)=O)cc2)n1 [Example 52, 4-[3-allyloxy-5-(4-methoxyphenyl)-1,2,4-triazole-1-yl]-benzenesulfonamide] |
| 22.6 | 27.2 | COc1ccc(-c2nc(OC)nn2-c2ccc(S(C)(=O)=O)cc2)cc1 [Example 59, 1-(4-methanesulfonylphenyl)-3-methoxy-5-(4-methoxylphenyl)-1H-1,2,4-triazole] |
| 22.6 | 26.4 | COc1ccc(-c2nc(OC(C)C)nn2-c2ccc(S(C)(=O)=O)cc2)cc1 [Example 63, 1-(4-methanesulfonylphenyl)-3-isopropoxy-5-(4-methoxyphenyl)-1H-1,2,4-triazole] |

Further lines, the molecule ahead of its results:

| SMILES | inhibition at 1 µM (COX-1) [%] | inhibition at 0.01 µM (COX-2) [%] |
| --- | --- | --- |
| C#CCSc1nc(-c2ccccc2)n(-c2ccc(S(N)(=O)=O)cc2)n1 [Example 45, 4-(3-prop-2-ynylthio-5-phenyl-1,2,4-triazole-1-yl)-benzenesulfonamide] | 23.4 | 13.3 |
| CC(C)Sc1nc(-c2ccccc2)n(-c2ccc(S(N)(=O)=O)cc2)n1 [Example 49, 4-(3-isopropylthio-5-phenyl-1,2,4-triazole-1-yl)-benzenesulfonamide] | 33.1 | 24.5 |
| COc1ccc(-c2nc(OCc3ccccc3)nn2-c2ccc(S(N)(=O)=O)cc2)cc1F [Example 50, 4-[3-benzyloxy-5-(3-fluoro-4-methoxyphenyl)-1,2,4-triazole-1-yl]-benzenesulfonamide] | 28 | 16.1 |
| NS(=O)(=O)c1ccc(-n2nc(OCc3ccccc3)nc2-c2ccccc2)cc1 [Example 51, 4-(3-benzyloxy-5-phenyl-1,2,4-triazole-1-yl)-benzenesulfonamide] | 21.4 | 23.4 |
| C=CCOc1nc(-c2ccccc2)n(-c2ccc(S(N)(=O)=O)cc2)n1 [Example 53, 4-(3-allyloxy-5-phenyl-1,2,4-triazole-1-yl)-benzenesulfonamide] | 20.4 | 16.2 |
| C=CCOc1nc(-c2ccc(F)cc2)n(-c2ccc(S(N)(=O)=O)cc2)n1 [Example 54, 4-[3-allyloxy-5-(4-fluorophenyl)-1,2,4-triazole-1-yl]-benzenesulfonamide] | 26.4 | 15.5 |
| COc1ccc(-c2nc(OCC(F)(F)F)nn2-c2ccc(S(N)(=O)=O)cc2)cc1 [Example 55, 4-[3-(2,2,2-trifluoroethoxy)-5-(4-methoxyphenyl)-1,2,4-triazole-1-yl]-benzenesulfonamide] | 33.1 | 16.2 |
| NS(=O)(=O)c1ccc(-n2nc(OCC(F)(F)F)nc2-c2ccc(F)cc2)cc1 [Example 56, 4-[3-(2,2,2-trifluoroethoxy)-5-(4-fluorophenyl)-1,2,4-triazole-1-yl]-benzenesulfonamide] | 37.2 | 27.7 |
| NS(=O)(=O)c1ccc(-n2nc(OCCCl)nc2-c2ccccc2)cc1 [Example 57, 4-[3-(2-chloroethoxy)-5-phenyl-1,2,4-triazole-1-yl]-benzenesulfonamide] | 21.4 | 26.6 |
| NS(=O)(=O)c1ccc(-n2nc(OC3CC3)nc2-c2ccccc2)cc1 [Example 58, 4-[3-cyclopropoxy-5-phenyl-1,2,4-triazole-1-yl]-benzenesulfonamide] | 34.3 | 30.4 |
| COc1nc(-c2ccccc2)n(-c2ccc(S(C)(=O)=O)cc2)n1 [Example 60, 1-(4-methanesulfonylphenyl)-3-methoxy-5-phenyl-1H-1,2,4-triazole] | 23.4 | 23.4 |
| CCOc1nc(-c2ccc(OC)cc2)n(-c2ccc(S(C)(=O)=O)cc2)n1 [Example 61, 1-(4-methanesulfonylphenyl)-3-ethoxy-5-(4-methoxylphenyl)-1H-1,2,4-triazole] | 33.1 | 34.2 |
| CCOc1nc(-c2ccccc2)n(-c2ccc(S(C)(=O)=O)cc2)n1 [Example 62, 1-(4-methanesulfonylphenyl)-3-ethoxy-5-phenyl-1H-1,2,4-triazole] | 26 | 25.4 |
| CC(C)Oc1nc(-c2ccccc2)n(-c2ccc(S(C)(=O)=O)cc2)n1 [Example 64, 1-(4-methanesulfonylphenyl)-3-isopropoxy-5-phenyl-1H-1,2,4-triazole] | 23.4 | 33.1 |
